# Reference: patent publication US11304949B2, “Treatment of hidradenitis suppurativa using JAK inhibitors” (Incyte Corporation, priority 2018, dated 2022)
# Legend:
# [1] = target: human JAK1 (a.a. 837-1142) (Homo sapiens, UniProt P23458); experiment: In vitro JAK kinase assay (HTRF), JAK1; assay type: biochemical; conditions: 1 mM ATP
# [2] = test system: human JAK1 (a.a. 837-1142); experiment: In vitro JAK kinase assay (HTRF), JAK1; assay type: biochemical; conditions: IC50 ratio at 1 mM ATP
# [3] = test system: Transformed human keratinocyte (HaCaT) cells stimulated with TNFα and IFNγ; experiment: JAK inhibitors in TNFα/IFNγ stimulated keratinocytes, gene expression (QuantiGene Plex); conditions: 24 hours, normalized to HPRT1, mean ± standard error
# [4] = test system: Transformed human keratinocyte (HaCaT) cells stimulated with TNFα and IFNγ; experiment: JAK inhibitors in TNFα/IFNγ stimulated keratinocytes, inflammatory mediators in media (ProCarta Multiplex Immunoassay); conditions: mean ± 1 standard error
# [5] = TNFα (25 ng/mL) and IFNγ (25 ng/mL), drug 25 nM
# [6] = TNFα (25 ng/mL) and IFNγ (25 ng/mL), drug 50 nM
# [7] = TNFα (25 ng/mL) and IFNγ (25 ng/mL), drug 100 nM
# [8] = TNFα (25 ng/mL) and IFNγ (25 ng/mL), drug 200 nM
# [9] = TNFα (25 ng/mL) and IFNγ (25 ng/mL) stimulation, drug 25 nM
# [10] = TNFα (25 ng/mL) and IFNγ (25 ng/mL) stimulation, drug 50 nM
# [11] = TNFα (25 ng/mL) and IFNγ (25 ng/mL) stimulation, drug 100 nM
# [12] = TNFα (25 ng/mL) and IFNγ (25 ng/mL) stimulation, drug 200 nM
compound,measurement,setting,value
"C[C@@H](O)c1nc2cnc3ccsc3c2n1[C@H]1CC[C@H](CC#N)OC1 [Compound 5, ((2R,5S)-5-{2-[(1R)-1-hydroxyethyl]-1H-imidazo[4,5-d]thieno[3,2-b]pyridin-1-yl}tetrahydro-2H-pyran-2-yl)acetonitrile]",IC50,[1],< 100 nM
same,JAK2/JAK1,[2],>10
same,IL-1α MFI,[3]; [5],1269.66 ± 50.59
same,IL-6 MFI,[3]; [5],132.28 ± 7.41
same,JAK1 MFI,[3]; [5],200.4 ± 9.84
same,JAK2 MFI,[3]; [5],108.89 ± 3.25
same,JAK3 MFI,[3]; [5],0.97 ± 0.18
same,STAT1 MFI,[3]; [5],3164.74 ± 242.35
same,STAT3 MFI,[3]; [5],1572.76 ± 65.5
same,STAT4 MFI,[3]; [5],5.4 ± 0.45
same,STAT5A MFI,[3]; [5],20.12 ± 1.29
same,STAT6 MFI,[3]; [5],1042.76 ± 29.23
same,TYK2 MFI,[3]; [5],283.93 ± 8.16
same,IL-1α MFI,[3]; [6],1336.95 ± 50.97
same,IL-6 MFI,[3]; [6],137.61 ± 5.87
same,JAK1 MFI,[3]; [6],210.52 ± 7.73
same,JAK2 MFI,[3]; [6],106.83 ± 5.94
same,JAK3 MFI,[3]; [6],0.99 ± 0.20
same,STAT1 MFI,[3]; [6],3017.08 ± 167.96
same,STAT3 MFI,[3]; [6],1543.4 ± 58.65
same,STAT4 MFI,[3]; [6],6.1 ± 0.36
same,STAT5A MFI,[3]; [6],22.69 ± 1.71
same,STAT6 MFI,[3]; [6],1046.46 ± 29.12
same,TYK2 MFI,[3]; [6],307.36 ± 14.87
same,IL-1α MFI,[3]; [7],1244.96 ± 41.03
same,IL-6 MFI,[3]; [7],122.46 ± 5.35
same,JAK1 MFI,[3]; [7],200.25 ± 8.15
same,JAK2 MFI,[3]; [7],102.64 ± 3.52
same,JAK3 MFI,[3]; [7],1.01 ± 0.17
same,STAT1 MFI,[3]; [7],2999.87 ± 197.86
same,STAT3 MFI,[3]; [7],1549.17 ± 89.41
same,STAT4 MFI,[3]; [7],5.83 ± 0.34
same,STAT5A MFI,[3]; [7],19.54 ± 1.34
same,STAT6 MFI,[3]; [7],985.1 ± 39.79
same,TYK2 MFI,[3]; [7],280.63 ± 10.46
same,IL-1α MFI,[3]; [8],1163.14 ± 26.71
same,IL-6 MFI,[3]; [8],119.49 ± 4.42
same,JAK1 MFI,[3]; [8],190.53 ± 7.68
same,JAK2 MFI,[3]; [8],92.21 ± 2.9
same,JAK3 MFI,[3]; [8],0.86 ± 0.16
same,STAT1 MFI,[3]; [8],3161.66 ± 135.8
same,STAT3 MFI,[3]; [8],1570.19 ± 51.51
same,STAT4 MFI,[3]; [8],5.42 ± 0.52
same,STAT5A MFI,[3]; [8],18.33 ± 1.83
same,STAT6 MFI,[3]; [8],1013.25 ± 17.15
same,TYK2 MFI,[3]; [8],283.28 ± 10.88
same,IL-1α MFI,"[3]; no stimulation, drug 200 nM",92.67 ± 5.54
same,IL-6 MFI,"[3]; no stimulation, drug 200 nM",5.15 ± 0.31
same,JAK1 MFI,"[3]; no stimulation, drug 200 nM",177.97 ± 14.91
same,JAK2 MFI,"[3]; no stimulation, drug 200 nM",25.67 ± 1.03
same,JAK3 MFI,"[3]; no stimulation, drug 200 nM",0.71 ± 0.15
same,STAT1 MFI,"[3]; no stimulation, drug 200 nM",554.64 ± 11.36
same,STAT3 MFI,"[3]; no stimulation, drug 200 nM",750.90 ± 27.68
same,STAT4 MFI,"[3]; no stimulation, drug 200 nM",4.32 ± 0.53
same,STAT5A MFI,"[3]; no stimulation, drug 200 nM",1.99 ± 0.51
same,STAT6 MFI,"[3]; no stimulation, drug 200 nM",777.03 ± 29.31
same,TYK2 MFI,"[3]; no stimulation, drug 200 nM",220.78 ± 12.01
same,IL-1α concentration in media,[4]; [9],6.8 ± 0.39 pg/mL
same,IL-6 concentration in media,[4]; [9],743.07 ± 36.3 pg/mL
same,IP-10/CXCL10 concentration in media,[4]; [9],3903.67 ± 366.97 pg/mL
same,MIP1α concentration in media,[4]; [9],102.06 ± 4.18 pg/mL
same,RANTES concentration in media,[4]; [9],237.57 ± 17.46 pg/mL
same,IL-1α concentration in media,[4]; [10],6.76 ± 0.4 pg/mL
same,IL-6 concentration in media,[4]; [10],698.04 ± 29.79 pg/mL
same,IP-10/CXCL10 concentration in media,[4]; [10],3998.62 ± 456.34 pg/mL
same,MIP1α concentration in media,[4]; [10],96.35 ± 3.57 pg/mL
same,RANTES concentration in media,[4]; [10],237.55 ± 21.78 pg/mL
same,IL-1α concentration in media,[4]; [11],6.92 ± 0.4 pg/mL
same,IL-6 concentration in media,[4]; [11],703.99 ± 42.22 pg/mL
same,IP-10/CXCL10 concentration in media,[4]; [11],4100.26 ± 502.48 pg/mL
same,MIP1α concentration in media,[4]; [11],96.22 ± 3.58 pg/mL
same,RANTES concentration in media,[4]; [11],241.39 ± 22.79 pg/mL
same,IL-1α concentration in media,[4]; [12],6.3 ± 0.35 pg/mL
same,IL-6 concentration in media,[4]; [12],646.2 ± 32.46 pg/mL
same,IP-10/CXCL10 concentration in media,[4]; [12],4407.56 ± 645.63 pg/mL
same,MIP1α concentration in media,[4]; [12],88.49 ± 5.06 pg/mL
same,RANTES concentration in media,[4]; [12],238.51 ± 23.12 pg/mL
same,IL-1α concentration in media,"[4]; no stimulation, drug 200 nM",0.31 ± 0.04 pg/mL
same,IL-6 concentration in media,"[4]; no stimulation, drug 200 nM",28.84 ± 1.89 pg/mL
same,IP-10/CXCL10 concentration in media,"[4]; no stimulation, drug 200 nM",20.39 ± 0.57 pg/mL
same,MIP1α concentration in media,"[4]; no stimulation, drug 200 nM",3.11 ± 0.28 pg/mL
same,RANTES concentration in media,"[4]; no stimulation, drug 200 nM",9.51 ± 0.56 pg/mL
